Square brackets hold non-standard residues; d marks the D form. Ends that are not written are not given here. Peptide text beside a SMILES is read from it. * marks the point of attachment. Myristoyl = CCCCCCCCCCCCCC(=O)*; NMeA = CN[C@@H](C)C(=O)O; Nle = CCCC[C@H](N)C(=O)O; Sar = CNCC(=O)O
Assays:
rat PrRP receptor = target: T1, rat PrRP receptor (Rattus norvegicus, UniProt Q64121); test: Competitive binding in RC-4B/C rat pituitary cells (125I-rat PrRP31); settings: affinity relative to PrRP31
T1 construct: host or cells: RC-4B/C rat pituitary cell line
T1 sequence (Q64121 1-370): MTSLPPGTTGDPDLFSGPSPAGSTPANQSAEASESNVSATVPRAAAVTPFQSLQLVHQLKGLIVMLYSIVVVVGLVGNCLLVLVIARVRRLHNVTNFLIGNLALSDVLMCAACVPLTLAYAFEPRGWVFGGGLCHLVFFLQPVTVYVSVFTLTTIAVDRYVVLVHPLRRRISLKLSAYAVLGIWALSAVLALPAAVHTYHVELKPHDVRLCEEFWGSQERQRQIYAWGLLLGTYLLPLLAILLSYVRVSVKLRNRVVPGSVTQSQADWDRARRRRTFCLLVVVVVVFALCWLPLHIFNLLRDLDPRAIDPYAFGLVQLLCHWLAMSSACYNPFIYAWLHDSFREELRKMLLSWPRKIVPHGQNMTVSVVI
Protocol: (§1) Competitive binding experiments were performed according to Motulsky and Neubig (Motulsky, A., et al., “Analyzing radioligand binding data,” Curr Protoc Neurosci, Chapter 7, Unit 7.5, 2002). Binding experiments were conducted with rat pituitary cells, and with Chinese Hamster Ovary (CHO) cells as follows:
The rat pituitary cell line RC-4B/C (ATCC, Manassas, USA) was grown on 24-well plates which had their bottom coated with polyethyleneimine. The cells were grown to the optimal density of 300-450 thousand cells per well. The following agents were used for the experiment: binding buffer (20 mmol·l^−1 HEPES, Ph 7.4; 118 mmol·l^−1 NaCl, 4.7 mmol·l^−1 KCl, 5 mmol·l^−1 MgCl2, 5.5 mmol·l^−1 glucose, 1 mg/ml BSA, 0.1 BPTI), unlabeled analogs of PrRP (i.e. the analog being tested) at a final concentration between 10^−11 to 10^−4 mol·l^−1, and rat ^125I-PrRP31 (labeled with radioactive Iodine-125) at a final concentration of […] (Maixnerová et al., 2011).
(§2) Plates were incubated for 60 minutes at room temperature. After incubation, the cells were solubilized in 0.1 mol/l solution of NaOH, and the radioactivity bound to the cells was counted using a γ-counter. The experiments were performed in duplicate, and repeated at least three times.
(§3) Graph Pad Prism Software (San Diego, Calif., USA) was used for evaluating the competitive binding experiments. Nonlinear regression was performed using a onsite binding model.

[1] = target: T2, human PrRP receptor GPR10 (Homo sapiens, UniProt P49683); test: Competitive binding in CHO cells transfected with human GPR10 (human 125I-PrRP31); settings: affinity relative to PrRP31
T2 construct: host or cells: CHO cells
T2 sequence (P49683 1-370): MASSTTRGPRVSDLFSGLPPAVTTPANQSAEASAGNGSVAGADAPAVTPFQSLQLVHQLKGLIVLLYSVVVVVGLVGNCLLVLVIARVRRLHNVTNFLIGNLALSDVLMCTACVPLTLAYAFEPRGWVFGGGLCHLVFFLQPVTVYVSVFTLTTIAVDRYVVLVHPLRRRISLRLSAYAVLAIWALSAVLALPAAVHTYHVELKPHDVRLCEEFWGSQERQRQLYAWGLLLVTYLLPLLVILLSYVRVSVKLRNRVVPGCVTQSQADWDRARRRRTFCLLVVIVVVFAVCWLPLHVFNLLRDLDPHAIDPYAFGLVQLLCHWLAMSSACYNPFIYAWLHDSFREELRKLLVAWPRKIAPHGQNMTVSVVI
Protocol: as §1
CHO cells transfected with human PrRP receptor GPR10 (Perkin Elmer, USA) were grown on 24-well plates coated with polyethyleneimine. The cells were grown to the optimal density of 40-80 thousand cells per well. The following agents were used for the experiment: binding buffer (25 mmol·l^−1 Tris, pH 7.4; 118 mmol·l^−1 NaCl, 10 mmol·l^−1 MgCl2, 10 mmol·l^−1 CaCl2, 5.5 mmol·l^−1 glucose, 0.5 mg/ml BSA), unlabeled analogs of PrRP (i.e. the analog being tested) at a final concentration between 10^−11 to 10^−4 mol·l^−1, and radiolabeled human ^125I-PrRP31 at a final concentration of 5×10^−11 mol·l^−1.
as §2, §3

Compound | % of PrRP31, RC-4B/C rat pituitary cells (rat PrRP receptor) | % of PrRP31, GPR10 human receptor transfected in CHO cells [1]
CCCCCCCCCCCCCC(=O)N[C@H](C(=O)N1CCC[C@H]1C(=O)N[C@@H](CC(=O)O)C(=O)N[C@H](C(=O)N[C@@H](CC(N)=O)C(=O)N1CCC[C@H]1C(=O)N[C@@H](C)C(=O)N[C@@H](Cc1c[nH]c2ccccc12)C(=O)N[C@@H](Cc1ccc(O)cc1)C(=O)N[C@H](C(=O)NCC(=O)N[C@@H](CCCNC(=N)N)C(=O)N(C)CC(=O)N[C@H](C(=O)N[C@@H](CCCNC(=N)N)C(=O)N1CCC[C@H]1C(=O)N[C@H](C(=O)NCC(=O)N[C@@H](CCCNC(=N)N)C(=O)N[C@@H](Cc1ccccc1)C(N)=O)C(C)C)[C@@H](C)CC)[C@@H](C)O)[C@@H](C)CC)[C@@H](C)O [Analog 28] (Myristoyl-TPDINPAWYTGR[Sar]IRPVGRF-NH2) | 1541% | 125%
CC[C@H](C)[C@H](NC(=O)CNC(=O)[C@H](CCCNC(=N)N)NC(=O)[C@H](CO)NC(=O)[C@H](C)N(C)C(=O)[C@H](Cc1ccc(O)cc1)NC(=O)[C@H](Cc1c[nH]c2ccccc12)NC(=O)[C@H](C)NC(=O)[C@@H]1CCCN1C(=O)[C@H](CC(N)=O)NC(=O)[C@@H](NC(=O)[C@H](CC(=O)O)NC(=O)[C@@H]1CCCN1C(=O)[C@@H](N)[C@@H](C)O)[C@@H](C)CC)C(=O)N[C@@H](CCCNC(=N)N)C(=O)N1CCC[C@H]1C(=O)N[C@H](C(=O)NCC(=O)N[C@@H](CCCNC(=N)N)C(=O)N[C@@H](Cc1ccccc1)C(N)=O)C(C)C [Analog 29] (H-TPDINPAWY[NMeA]SRGIRPVGRF-NH2) | 10% | 45%
CCCCCCCCCCCCCC(=O)N[C@H](C(=O)N1CCC[C@H]1C(=O)N[C@@H](CC(=O)O)C(=O)N[C@H](C(=O)N[C@@H](CC(N)=O)C(=O)N1CCC[C@H]1C(=O)N[C@@H](C)C(=O)N[C@@H](Cc1c[nH]c2ccccc12)C(=O)N[C@@H](Cc1ccc(O)cc1)C(=O)N(C)[C@@H](C)C(=O)N[C@@H](CO)C(=O)N[C@@H](CCCNC(=N)N)C(=O)NCC(=O)N[C@H](C(=O)N[C@@H](CCCNC(=N)N)C(=O)N1CCC[C@H]1C(=O)N[C@H](C(=O)NCC(=O)N[C@@H](CCCNC(=N)N)C(=O)N[C@@H](Cc1ccccc1)C(N)=O)C(C)C)[C@@H](C)CC)[C@@H](C)CC)[C@@H](C)O [Analog 30] (Myristoyl-TPDINPAWY[NMeA]SRGIRPVGRF-NH2) | 1072% | 185%
CCCCCCCCCCCCCC(=O)N[C@H](C(=O)N1CCC[C@H]1C(=O)N[C@@H](CC(=O)O)C(=O)N[C@H](C(=O)N[C@@H](CC(N)=O)C(=O)N1CCC[C@H]1C(=O)N[C@@H](C)C(=O)N[C@@H](Cc1c[nH]c2ccccc12)C(=O)N[C@@H](Cc1ccc(O)cc1)C(=O)N[C@H](C(=O)NCC(=O)N[C@@H](CCCNC(=N)N)C(=O)NCC(=O)N[C@@H](C)C(=O)N[C@@H](CCCNC(=N)N)C(=O)N1CCC[C@H]1C(=O)N[C@@H](Cc1ccccc1)C(=O)NCC(=O)N[C@@H](CCCNC(=N)N)C(=O)N[C@@H](Cc1ccccc1)C(N)=O)[C@@H](C)O)[C@@H](C)CC)[C@@H](C)O [Analog 32] (Myristoyl-TPDINPAWYTGRGARPFGRF-NH2) | 68% | 46%
CCCCCCCCCCCCCC(=O)N[C@H](C(=O)N1CCC[C@H]1C(=O)N[C@@H](CC(=O)O)C(=O)N[C@H](C(=O)N[C@@H](CC(N)=O)C(=O)N1CCC[C@H]1C(=O)N[C@@H](C)C(=O)N[C@@H](Cc1c[nH]c2ccccc12)C(=O)N[C@@H](Cc1ccc(O)cc1)C(=O)N[C@@H](C)C(=O)N[C@@H](CO)C(=O)N[C@@H](CCCNC(=N)N)C(=O)N1CCC[C@H]1C(=O)N[C@@H](Cc1ccccc1)C(=O)N[C@@H](CCCNC(=N)N)C(=O)N1CCC[C@H]1C(=O)N[C@H](C(=O)NCC(=O)N[C@@H](CCCNC(=N)N)C(=O)N[C@@H](Cc1ccccc1)C(N)=O)C(C)C)[C@@H](C)CC)[C@@H](C)O [Analog 34] (Myristoyl-TPDINPAWYASRPFRPVGRF-NH2) | 587% | 671%
CCCC[C@H](N)C(=O)N[C@@H](CCC(=O)O)C(=O)N[C@H](C(=O)N[C@@H](CCCNC(=N)N)C(=O)N[C@H](C(=O)N1CCC[C@H]1C(=O)N[C@@H](CC(=O)O)C(=O)N[C@H](C(=O)N[C@@H](CC(N)=O)C(=O)N1CCC[C@H]1C(=O)N[C@@H](C)C(=O)N[C@@H](Cc1c[nH]c2ccccc12)C(=O)N[C@@H](Cc1ccc(O)cc1)C(=O)N[C@H](C(=O)NCC(=O)N[C@@H](CCCNC(=N)N)C(=O)NCC(=O)N[C@H](C(=O)N[C@@H](CCCNC(=N)N)C(=O)N1CCC[C@H]1C(=O)N[C@H](C(=O)NCC(=O)N[C@@H](CCCNC(=N)N)C(=O)N[C@@H](Cc1ccccc1)C(N)=O)C(C)C)[C@@H](C)CC)[C@@H](C)O)[C@@H](C)CC)[C@@H](C)O)[C@@H](C)O [Analog 35] (H-[Nle]ETRTPDINPAWYTGRGIRPVGRF-NH2) | 168% | 113%
CCCCCCCCCCCCCC(=O)N[C@@H](CCCC)C(=O)N[C@@H](CCC(=O)O)C(=O)N[C@H](C(=O)N[C@@H](CCCNC(=N)N)C(=O)N[C@H](C(=O)N1CCC[C@H]1C(=O)N[C@@H](CC(=O)O)C(=O)N[C@H](C(=O)N[C@@H](CC(N)=O)C(=O)N1CCC[C@H]1C(=O)N[C@@H](C)C(=O)N[C@@H](Cc1c[nH]c2ccccc12)C(=O)N[C@@H](Cc1ccc(O)cc1)C(=O)N[C@H](C(=O)NCC(=O)N[C@@H](CCCNC(=N)N)C(=O)NCC(=O)N[C@H](C(=O)N[C@@H](CCCNC(=N)N)C(=O)N1CCC[C@H]1C(=O)N[C@H](C(=O)NCC(=O)N[C@@H](CCCNC(=N)N)C(=O)N[C@@H](Cc1ccccc1)C(N)=O)C(C)C)[C@@H](C)CC)[C@@H](C)O)[C@@H](C)CC)[C@@H](C)O)[C@@H](C)O [Analog 36] (Myristoyl-[Nle]ETRTPDINPAWYTGRGIRPVGRF-NH2) | 1096% | 71%
CCCCCCCCCCCCCC(=O)N[C@@H](CCC(N)=O)C(=O)N[C@@H](Cc1c[nH]cn1)C(=O)N[C@@H](CO)C(=O)N[C@@H](CCSC)C(=O)N[C@@H](CCC(=O)O)C(=O)N[C@H](C(=O)N[C@@H](CCCNC(=N)N)C(=O)N[C@H](C(=O)N1CCC[C@H]1C(=O)N[C@@H](CC(=O)O)C(=O)N[C@H](C(=O)N[C@@H](CC(N)=O)C(=O)N1CCC[C@H]1C(=O)N[C@@H](C)C(=O)N[C@@H](Cc1c[nH]c2ccccc12)C(=O)N[C@@H](Cc1ccc(O)cc1)C(=O)N[C@H](C(=O)NCC(=O)N[C@@H](CCCNC(=N)N)C(=O)NCC(=O)N[C@H](C(=O)N[C@@H](CCCNC(=N)N)C(=O)N1CCC[C@H]1C(=O)N[C@H](C(=O)NCC(=O)N[C@@H](CCCNC(=N)N)C(=O)N[C@@H](Cc1ccccc1)C(N)=O)C(C)C)[C@@H](C)CC)[C@@H](C)O)[C@@H](C)CC)[C@@H](C)O)[C@@H](C)O [Analog 38] (Myristoyl-QHSMETRTPDINPAWYTGRGIRPVGRF-NH2) | 1332% | 56%
QHSMETRTPDINPAWYTGRGIRPVGRF-NH2 [Analog 37] | 189% | 66%
TPDINPAWYASRPFRPVGRF-NH2 [Analog 33] | 230% | 225%
TPDINPAWYTGRGARPFGRF-NH2 [Analog 31] | 0.8% | 0.7%

— patent US10350271B2, “Lipidated peptides for lowering blood glucose” (USTAV ORGANICKE CHEMIE A BIOCHEMIE AKADEMIE VED CR, V.V.I., priority 2014, dated 2019)
